Results on 18 compounds are retold here after US9175028B2, “Glycoside compound” (AJINOMOTO CO., INC., priority 2010, dated 2015).

Entries after “also recorded” stand apart in the source; their conditions may differ.

Test [1] has as its system human colorectal cancer-derived cell line NCI-H716. Briefly: GLP-1 secretion, GLP-1 concentration in supernatant by ELISA. Type of test: cell-based. Particulars: for GLP-1 concentration in the supernatant compared to the DMSO treatment (control) group: 60 minutes, result in words (FIGS. 1-11); for fold induction at 100 µM / fold induction at 300 µM: Homo sapiens, NCI-H716, 1 h, GLP-1 concentration in supernatant against control group (0.1% DMSO) as 1, 60 minutes. The protocol: Subcultured human colorectal cancer-derived cell line NCI-H716 (ATCC) was plated on a poly-D-lysine coated 96-well plate at 1×10^5 cells per well. After culture at 37° C., 5% CO2 for 48 hours, the medium was substituted with a buffer (146 mM NaCl, 5 mM KCl, 1 mM MgSO4, 5.5 mM Glucose, 20 mM HEPES, 1.5 mM CaCl2, 0.2% BSA, pH 7.4), and dihydrocapsiate (DCT), dihydrocapsiate glycoside and structural analogs thereof (compounds 4, 12, 47, 27, 20, 18, 16, 30, 32, 32-3, 34, 35, 36, 24-2, 33, 14, 22, 23 and 24), each prepared to a given concentration with dimethyl sulfoxide (DMSO), were added. After treatment at 37° C., 5% CO2 for 60 minutes, the supernatant was recovered, and the concentration of GLP-1 in the supernatant was measured by the ELISA method. The strength of the activity of each compound is expressed against GLP-1 concentration of the control group (0.1% DMSO treatment group) as 1, and the compound showing higher GLP-1 concentration than the control group was evaluated as active.
(An ELISA detects its analyte on a solid surface through an enzyme-linked reagent.)

The test system is the same in test [2]. The test is described as above. The test is classed as cell-based. To be noted: result in words (FIG. 2).
For test [3], the system named is C57BL/6J mice. Briefly: food ingestion calories of mice fed test diets for 56 days. Type of test: in vivo. To be noted: 0.459% (w/w) in high-fat diet, mouse, compared to normal diet, high-fat diet alone or high-fat diet added with DCT, result in words, listed as glycoside DCT. The protocol:
Glycoside DCT was added at a proportion of 0.459% (w/w) to AIN-93 composition diet containing 30% lard (to be abbreviated as glycoside DCT diet or glycoside diet), and fed to mouse. […] As a control, AIN-93 composition diet containing 7% lard (to be abbreviated as normal diet), AIN-93 composition diet containing 30% lard (to be abbreviated as high-fat diet), and high-fat diet containing 0.3% (w/w) dihydrocapsiate (DCT) (to be abbreviated as DCT diet) were fed to the mouse.
The details of the test method are shown below. 7-week-old male C57BL/6J mice (n=46) (Charles River Laboratories) were acclimated for 2 weeks, divided into 4 groups such that they have the same average body weight, and each group was allowed to freely ingest a food having the composition shown in Table 2 for 56 days. The body weight and the food ingestion amount were measured every 3-4 days.

Turning to `COc1ccc(COC(=O)CCCCCCC(C)C)cc1OC1OC(CO)C(O)C(O)C1O` [compound 34, O-[3-(β-D-glucopyranosyloxy)-4-methoxybenzyl]-8-methylnonanoic acid ester], in test [1], the “GLP-1 concentration in the supernatant compared to the DMSO treatment (control) group” value is given as “increased”, the fold induction at 100 µM is 1.29 and the fold induction at 300 µM was 1.94.

`COc1cc(CCC(=O)OCCCCCCCC(C)C)ccc1OC1OC(CO)C(OC2OC(CO)C(O)C(O)C2O)C(O)C1O` [compound 32, O-8-methylnonyl-3-[4-(β-D-glucopyranosyl-(1→4)-β-D-glucopyranosyloxy)-3-methoxyphenyl]propionic acid ester]: in test [1], the “GLP-1 concentration in the supernatant compared to the DMSO treatment (control) group” value is on record as “increased”, the fold induction at 100 µM is 1.24 and the fold induction at 300 µM is 3.46.

`COc1cc(CNC(=O)CCCCCCC(C)C)ccc1O[C@@H]1O[C@H](CO)[C@@H](O)[C@H](O)[C@H]1O` [compound 47, N-[4-(β-D-glucopyranosyloxy)-3-methoxybenzyl]-8-methylnonanamide, reference compound]: in test [1], the “GLP-1 concentration in the supernatant compared to the DMSO treatment (control) group” value is given as “did not show GLP-1 secretion promoting activity”, the fold induction at 100 µM was determined as 0.61 and the fold induction at 300 µM stood at 0.78.

In the case of `COc1cccc(COC(=O)CCCCCCC(C)C)c1OC1OC(COC(C)=O)C(OC2OC(COC(C)=O)C(OC(C)=O)C(OC(C)=O)C2OC(C)=O)C(OC(C)=O)C1OC(C)=O` (centres unmarked) [compound 24-2], in test [1], the “GLP-1 concentration in the supernatant compared to the DMSO treatment (control) group” value is “increased”, the fold induction at 100 µM was 0.87 and the fold induction at 300 µM was 1.15.

In the case of `COc1cc(CNC(=O)CCCCCCC(C)C)ccc1O[C@@H]1O[C@H](CO)[C@@H](O[C@@H]2O[C@H](CO)[C@@H](O)[C@H](O)[C@H]2O)[C@H](O)[C@H]1O` [compound 27, N-[4-(β-D-glucopyranosyl-(1→4)-β-D-glucopyranosyloxy)-3-methoxybenzyl]-8-methylnonanamide, reference compound], in test [1], the “GLP-1 concentration in the supernatant compared to the DMSO treatment (control) group” value is listed as “did not show GLP-1 secretion promoting activity”, the fold induction at 100 µM came out at 0.66 and the fold induction at 300 µM stood at 0.71.

In the case of `COc1cc(COC(=O)CCCCCCC(C)C)ccc1OC1OC(CO)C(OC2OC(CO)C(O)C(O)C2O)C(O)C1O` [compound 12, O-[4-(β-D-glucopyranosyl-(1→4)-β-D-glucopyranosyloxy)-3-methoxybenzyl]-8-methylnonanoic acid ester], the “GLP-1 concentration compared to the group treated with equimolar concentration of glucose or cellobiose” value in test [2] is reported as “markedly high”. In test [1], the “GLP-1 concentration in the supernatant compared to the DMSO treatment (control) group” value is “increased in a compound concentration-dependent manner” and the fold induction at 100 µM amounted to 5.02.

As to `COc1cc(COC(=O)CCCCCC(C)C)ccc1OC1OC(CO)C(O)C(O)C1O` [compound 18, O-[4-(β-D-glucopyranosyloxy)-3-methoxybenzyl]-7-methyloctanoic acid ester], in test [1], the “GLP-1 concentration in the supernatant compared to the DMSO treatment (control) group” value was “increased”, the fold induction at 100 µM amounted to 1.33 and the fold induction at 300 µM amounted to 1.85.

As for `COc1cc(CO)ccc1O[C@@H]1O[C@H](CO)[C@@H](O[C@@H]2O[C@H](CO)[C@@H](O)[C@H](O)[C@H]2O)[C@H](O)[C@H]1O` [compound 14, 4-(β-D-glucopyranosyl-(1→4)-β-D-glucopyranosyloxy)-3-methoxybenzyl alcohol], in test [1], the “GLP-1 concentration in the supernatant compared to the DMSO treatment (control) group” value was “increased”, the fold induction at 100 µM is 1.07 and the fold induction at 300 µM was determined as 1.12.

Turning to `COc1cc(CCC(=O)OCCCCCCCC(C)C)ccc1OC1OC(CO)C(O)C(O)C1O` [compound 30, O-8-methylnonyl-3-[4-(β-D-glucopyranosyloxy)-3-methoxyphenyl]propionic acid ester], in test [1], the “GLP-1 concentration in the supernatant compared to the DMSO treatment (control) group” value is on record as “increased”, the fold induction at 100 µM amounted to 0.93 and the fold induction at 300 µM worked out at 2.6.

Turning to `COc1cccc(COC(=O)CCCCCCC(C)C)c1OC1OC(CO)C(OC2OC(CO)C(O)C(O)C2O)C(O)C1O` [compound 24, O-[2-(β-D-glucopyranosyl-(1→4)-β-D-glucopyranosyloxy)-3-methoxybenzyl]-8-methylnonanoic acid ester], in test [1], the “GLP-1 concentration in the supernatant compared to the DMSO treatment (control) group” value was “increased”, the fold induction at 100 µM was determined as 1.33 and the fold induction at 300 µM amounted to 9.5.

In the case of `CCCCCCCCCC(=O)OCc1ccc(OC2OC(CO)C(O)C(O)C2O)c(OC)c1` [compound 16, O-[4-(β-D-glucopyranosyloxy)-3-methoxybenzyl]-decanoic acid ester], in test [1], the “GLP-1 concentration in the supernatant compared to the DMSO treatment (control) group” value was “increased”, the fold induction at 100 µM came to 1.23 and the fold induction at 300 µM came to 3.25.

Take `COc1cc(COC(=O)CCCCCC(C)C)ccc1OC1OC(CO)C(OC2OC(CO)C(O)C(O)C2O)C(O)C1O` [compound 36, O-[4-(β-D-glucopyranosyl-(1→4)-β-D-glucopyranosyloxy)-3-methoxybenzyl]-7-methyloctanoic acid ester]: in test [1], the “GLP-1 concentration in the supernatant compared to the DMSO treatment (control) group” value is on record as “increased”, the fold induction at 100 µM is 1.19 and the fold induction at 300 µM was found to be 2.41.

`COc1cc(CCOC(=O)CCCCCCC(C)C)ccc1OC1OC(CO)C(OC2OC(CO)C(O)C(O)C2O)C(O)C1O` [compound 23, O-[4-(β-D-glucopyranosyl-(1→4)-β-D-glucopyranosyloxy)-3-methoxyphenethyl]-8-methylnonanoic acid ester]: in test [1], the “GLP-1 concentration in the supernatant compared to the DMSO treatment (control) group” value is on record as “increased”, the fold induction at 100 µM worked out at 1.37 and the fold induction at 300 µM was 10.3.

On to `COc1cc(COC(=O)CCCCCCC(C)C)ccc1OC1OC(CO)C(O)C(O)C1O` [compound 4, O-[4-(β-D-glucopyranosyloxy)-3-methoxybenzyl]-8-methylnonanoic acid ester], for which, in test [2], the “GLP-1 concentration compared to the group treated with equimolar concentration of glucose or cellobiose” value is “markedly high”. The “total ingested calories during the test period” value in test [3] was “suppress food ingestion calories; also recorded: significant decrease”. Moreover, in test [1], the “GLP-1 concentration in the supernatant compared to the DMSO treatment (control) group” value is on record as “increased in a compound concentration-dependent manner” and the fold induction at 100 µM was 2.3.

As for `COc1cc(CC(=O)OCCCCCCCC(C)C)ccc1OC1OC(CO)C(OC2OC(CO)C(O)C(O)C2O)C(O)C1O` [compound 22, O-8-methylnonyl-2-[4-(β-D-glucopyranosyl-(1→4)-β-D-glucopyranosyloxy)-3-methoxyphenyl]acetic acid ester], in test [1], the “GLP-1 concentration in the supernatant compared to the DMSO treatment (control) group” value is given as “increased”, the fold induction at 100 µM turned out to be 1.87 and the fold induction at 300 µM turned out to be 1.66.

As for `COc1cc(COC(=O)CCCC/C=C/C(C)C)ccc1OC1OC(CO)C(O)C(O)C1O` [compound 20, O-[4-(β-D-glucopyranosyloxy)-3-methoxybenzyl]-8-methyl-6-nonenoic acid ester], in test [1], the “GLP-1 concentration in the supernatant compared to the DMSO treatment (control) group” value is “increased”, the fold induction at 100 µM came out at 1.13 and the fold induction at 300 µM was 1.56.

Take `COc1cc(COC(=O)CCCCCCC(C)C)ccc1O` [DCT, dihydrocapsiate, reference compound]: in test [1], the “GLP-1 concentration in the supernatant compared to the DMSO treatment (control) group” value was “did not show a similar change”.

`COc1cc(COC(=O)CCCC/C=C/C(C)C)ccc1OC1OC(CO)C(OC2OC(CO)C(O)C(O)C2O)C(O)C1O` [compound 35, O-[4-(β-D-glucopyranosyl-(1→4)-β-D-glucopyranosyloxy)-3-methoxybenzyl]-8-methyl-6-nonenoic acid ester]: in test [1], the “GLP-1 concentration in the supernatant compared to the DMSO treatment (control) group” value is on record as “increased”, the fold induction at 100 µM turned out to be 1.14 and the fold induction at 300 µM is 2.4.

The fold induction is the signal under treatment as a multiple of the control signal.
